Our source for the Km and Ki values is PMC3407035 (Journal of enzyme inhibition and medicinal chemistry, 2011).

The target in assay [1] is T1, Human GGT1 (gamma-glutamyl transpeptidase, GGT) (Homo sapiens, UniProt P19440). Nature of the assay: pNA release at […] nm, hydrolysis. It is filed as biochemical. The conditions noted are these: read-out: D-GpNA Minus acceptor; no acceptor, pH 7.4, 37 °C.
Assay [2] has as its target T1, Human GGT1 (gamma-glutamyl transpeptidase, GGT). Nature of the assay: pNA release at […] nm, transpeptidation. In kind it is biochemical.

T1 sequence (P19440 27-380 limits assumed): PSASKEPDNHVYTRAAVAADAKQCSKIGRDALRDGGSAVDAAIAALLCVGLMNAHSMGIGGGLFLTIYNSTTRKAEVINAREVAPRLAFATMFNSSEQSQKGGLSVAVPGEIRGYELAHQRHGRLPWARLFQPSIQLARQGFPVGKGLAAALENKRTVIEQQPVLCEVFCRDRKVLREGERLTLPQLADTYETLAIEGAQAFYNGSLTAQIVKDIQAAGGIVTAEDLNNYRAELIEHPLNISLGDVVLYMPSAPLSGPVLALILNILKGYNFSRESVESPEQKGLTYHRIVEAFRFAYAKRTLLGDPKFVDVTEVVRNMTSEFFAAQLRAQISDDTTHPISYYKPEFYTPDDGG
T1 sequence (P19440 381-569 limits assumed): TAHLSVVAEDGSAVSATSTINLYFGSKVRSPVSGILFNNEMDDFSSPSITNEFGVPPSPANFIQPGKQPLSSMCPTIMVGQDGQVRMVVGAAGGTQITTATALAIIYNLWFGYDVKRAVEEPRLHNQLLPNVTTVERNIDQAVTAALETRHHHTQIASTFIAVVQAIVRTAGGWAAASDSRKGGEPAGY

On to `N[C@H](CCC(=O)Nc1ccc([N+](=O)[O-])cc1)C(=O)O` [D-GpNA], for which, in assay [1], the Km came out at 160 ± 20 µM.

The Ki is the dissociation constant of the complex between target and ligand, obtained from inhibition or displacement. Higher therefore signals weaker binding. As for `COc1ccc(Cc2nnc(NS(=O)(=O)c3cccc4ccccc34)s2)cc1` [compound 6, Compound 6], the Ki in assay [2] turned out to be 45.7 ± 3.4 µM.

The compound `COc1ccc(Cc2nnc(NS(=O)(=O)c3ccc(Cl)cc3)s2)cc1` [compound 10, Compound 10] registered a Ki in assay [2] of 13.4 ± 0.8 µM.

The compound `Cc1ccc(Cc2nnc(NS(=O)(=O)c3ccc([N+](=O)[O-])cc3)s2)cc1` [compound 17, Compound 17] came in with a Ki in assay [2] of 56.9 ± 8.3 µM.

`Cc1cccc(Cc2nnc(NS(=O)(=O)c3ccc([N+](=O)[O-])cc3)s2)c1` [compound 18, Compound 18] displayed a Ki in assay [2] of 34.3 ± 0.9 µM.
